Measurements published in patent publication US9447090B2, “Imidazopyridine compounds” (Astellas Pharma Inc., priority 2011, dated 2016).

Experiments:
human purified sGC = human purified sGC (Homo sapiens (Human), UniProt Q02108+Q02153); assay: Measurement of sGC activation (enzyme): cGMP produced by human purified sGC, HTRF; type: biochemical; conditions: for EC50: concentration giving 50% of maximum activation; for sGC activation [%]: activation when the compound was not added taken as 100%, maximum concentration 100 μM, with SNP
Chain of human purified sGC (Q02153 whole entry): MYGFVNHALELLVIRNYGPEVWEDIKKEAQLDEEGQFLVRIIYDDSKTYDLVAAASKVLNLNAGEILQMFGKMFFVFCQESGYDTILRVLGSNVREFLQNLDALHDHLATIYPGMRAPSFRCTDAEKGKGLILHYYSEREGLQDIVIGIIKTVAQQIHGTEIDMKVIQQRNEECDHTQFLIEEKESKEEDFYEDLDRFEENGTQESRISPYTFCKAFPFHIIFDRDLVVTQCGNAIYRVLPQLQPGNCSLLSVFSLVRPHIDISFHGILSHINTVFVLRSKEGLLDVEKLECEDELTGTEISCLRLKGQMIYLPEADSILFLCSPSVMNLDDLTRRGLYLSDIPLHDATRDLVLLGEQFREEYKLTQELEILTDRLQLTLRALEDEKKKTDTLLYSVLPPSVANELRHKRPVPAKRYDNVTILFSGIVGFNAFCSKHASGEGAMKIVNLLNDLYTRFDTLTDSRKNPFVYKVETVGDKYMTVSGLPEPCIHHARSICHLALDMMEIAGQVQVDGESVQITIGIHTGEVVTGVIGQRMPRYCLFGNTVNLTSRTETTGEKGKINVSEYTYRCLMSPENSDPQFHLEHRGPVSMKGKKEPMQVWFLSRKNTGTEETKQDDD
Chain of human purified sGC (Q02108 whole entry): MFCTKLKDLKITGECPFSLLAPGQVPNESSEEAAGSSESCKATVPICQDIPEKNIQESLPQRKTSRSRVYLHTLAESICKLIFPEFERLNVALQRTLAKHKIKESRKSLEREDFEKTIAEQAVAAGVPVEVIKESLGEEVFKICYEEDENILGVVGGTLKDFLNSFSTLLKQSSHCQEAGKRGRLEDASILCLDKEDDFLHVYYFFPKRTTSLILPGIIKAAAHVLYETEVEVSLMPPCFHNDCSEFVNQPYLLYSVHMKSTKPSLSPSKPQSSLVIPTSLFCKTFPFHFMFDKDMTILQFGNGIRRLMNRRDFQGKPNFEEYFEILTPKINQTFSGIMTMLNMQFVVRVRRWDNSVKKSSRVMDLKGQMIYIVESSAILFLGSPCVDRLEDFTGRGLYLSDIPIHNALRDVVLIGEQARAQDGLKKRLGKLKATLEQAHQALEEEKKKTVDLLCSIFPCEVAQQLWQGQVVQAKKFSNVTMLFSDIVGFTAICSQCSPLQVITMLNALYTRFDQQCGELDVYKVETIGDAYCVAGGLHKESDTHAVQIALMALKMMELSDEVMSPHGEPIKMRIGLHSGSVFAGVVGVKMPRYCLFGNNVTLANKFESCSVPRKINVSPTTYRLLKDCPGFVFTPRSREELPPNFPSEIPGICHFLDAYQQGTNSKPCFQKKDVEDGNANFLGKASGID
Description: The activity of sGC was evaluated by measuring the amount of a cyclic guanosine monophosphate (cGMP) which is produced by human purified sGC.
A test compound was dissolved in DMSO and diluted 20-fold with ultrapure water. 2 μL of the diluted test compound solution (maximum concentration 100 μM), 2 μL of a substrate solution [0.5 μM TEBA, 0.03 μM dithiothreitol, 0.01 μM GTP, 0.04 μM MgCl2, and 0.03 μM sodium nitroprusside (SNP)], and 6 μL of a human enzyme suspension were added to 384-well plates (manufactured by Greiner Bio-One), and incubated at room temperature for one hour. The quantitative determination of cGMP is using HTRF which based on the competition between sample cGMP and fluorescent dye labeled cGMP for binding to a cGMP-specific antibody.
The test results of some Example compounds that are the compounds of the formula (I) of the present invention are shown below. The sGC activation of the test compound was calculated by taking the activation when the compound was not added as 100%. As compared with the activation when the compound was not added, it was recognized that a compound having a sGC activation of more than 300% has sGC activation. In addition, in Tables, Ex represents Example number in which the test compound is described and the sGC activation [%] represents sGC activation (%).
Furthermore, the EC50 [μM] value was calculated as another parameter for expressing sGC activation. This parameter indicates the concentration of the evaluated compound giving 50% of a maximum activation, which is calculated based on the maximum activation that compound of Example 102 is added, which is taken as 100%. In this connection, when a known sGC activator, YC-1 (Lificiguat, [5-(1-benzyl-1H-indazol-3-yl)-2-furyl]methanol), was evaluated according to the above Test Example 1, its maximum activation was 52% of the maximum activation for compound of Example 102. Further, “−” means no evaluation.

Wistar male rats [1] = assay: Blood flow increasing in vivo: hind limb blood flow in anesthetized rats, laser blood flow imaging; conditions: rat hind limb, oral, 2 hours after administration
Description: The hind limb blood flow in rats anesthetized with pentobarbital was measured by the following test method. Wistar male rats were used. […] Thus prepared administration liquid was orally administered, and 2 hours later, the hind limb blood flow was measured using a laser blood flow imaging device (PIM II Integral) under anesthesia with intraperitoneal administration of 60 mg/kg of pentobarbital.

Wistar male rats [2] = assay: Measurement of antihypertensive effect in vivo: blood pressure via carotid cannula after oral dosing; conditions: rat
Description: Wistar male rats were used. Three days prior to administration of a drug, a cannula (PE-50, Becton, Dickinson and Company, Japan) filled with heparin physiological saline (200 U/mL, Ajinomoto Pharmaceuticals Co., Ltd.) was inserted and placed in the common carotid artery under anesthesia with intraperitoneal administration of 60 mg/kg of pentobarbital. The other end of the cannula was exposed to the back neck through the subcutaneous. After the recovery period, the placed cannula was connected to a pressure transducer (Life Kit DTS DX-100, Nihon Kohden Corporation) to record the blood pressure waveform through a Polygraph (AP-641G, Nihon Kohden Co., Ltd.) and PowerLab (ML870 PowerLab8/30 (AD Instruments Japan)). The heart rate was calculated using a heart rate measuring unit (AT-601G, Nihon Kohden Co., Ltd.). After stabilization of the blood pressure, the drug was orally administered to measure the blood pressure and the heart rates. The test compounds were administered by appropriately adding N,N-dimethylformamide, Polyethylene Glycol 400, TWEEN 80, a 0.5% aqueous methylcellulose solution, and a 0.5 M aqueous sodium bicarbonate solution, and 0.1 M hydrochloric acid therein according to the compounds and dissolving it.
The results from the measurement according to Test Example 3 are shown below according to the following criteria with a maximum value of the mean blood pressure reduction. A: <20 mmHg, B: 20 to 40 mmHg, and C: >40 mmHg

[3] = maximum activation of Example 102 taken as 100%

sGC activation [%] (human purified sGC)	Compound	EC50 (human purified sGC; [3])	blood flow increasing effect (Wistar male rats [1]; dose of 10 mg/kg)	also measured
–	Cc1nc2c(OCC3CCCCC3)cccn2c1C(=O)N[C@@H](CO)c1ccccc1 [Ex 102]	2.8 µM	exhibited a blood flow increasing effect	–
>1000%	Cc1nc2c(OCC3CCCCC3)cccn2c1C(=O)N[C@@H](CC(=O)O)c1ccccc1 [Ex 251]	6.1 µM	exhibited a blood flow increasing effect	–
>1000%	Cc1nc2c(OCC3CCCCC3)cccn2c1C(=O)N[C@H]1CCCN(C)C1 [Ex 226]	6.7 µM	–	–
>1000%	Cc1nc2c(OCC3CCCCC3)cccn2c1C(=O)N[C@@H]1c2ccc(F)cc2C[C@H]1C(=O)O [Ex 706]	4.7 µM	exhibited a blood flow increasing effect	–
>1000%	Cc1nc2c(OCc3c(F)cccc3F)cccn2c1C(=O)N[C@@H](CO)c1cccc(F)c1.Cl [Ex 436]	–	–	–
>1000%	Cc1nc2c(OCC3CCCCC3)cccn2c1C(=O)N[C@@H]1c2c(F)cccc2C[C@H]1C(=O)O [Ex 704]	11 µM	exhibited a blood flow increasing effect	–
–	Cc1nc2c(OCC3CCCCC3)cccn2c1C(=O)N[C@@H](CC(=O)O)CC1CCC1 [Ex 179]	2.7 µM	exhibited a blood flow increasing effect	–
980%	Cc1nc2c(OCC3CCCCC3)cccn2c1C(=O)N[C@H]1CCN(C)C1 [Ex 341]	6.9 µM	–	blood flow increasing effect (Wistar male rats [1]; dose of 30 mg/kg): exhibited a blood flow increasing effect
–	Cc1nc2c(OCc3c(F)cccc3F)cccn2c1C(=O)NC(C)(C)CO [Ex 772]	5.4 µM	–	–
–	Cc1nc2c(OCc3c(F)cccc3F)cccn2c1C(=O)N[C@H]1CCCN(S(N)(=O)=O)C1 [Ex 247]	2.4 µM	exhibited a blood flow increasing effect	–
–	Cc1nc2c(OCC3CCCCC3)cccn2c1C(=O)N[C@@H](C)c1cccc(C(=O)O)c1 [Ex 323]	13 µM	–	–
–	Cc1nc2c(OCc3ccccc3F)cccn2c1C(=O)N[C@@H]1c2ccccc2[C@H](O)[C@H]1O (stereo in doubt) [Ex 798]	8.6 µM	–	–
–	Cc1nc2c(OCc3c(F)cccc3F)cccn2c1C(=O)N[C@@H]1c2ccccc2C[C@@H]1O.Cl [Ex 431]	–	–	Blood pressure reduction (maximum value of the mean blood pressure reduction) (Wistar male rats [2]; 10 mg/kg po): B (B: 20 to 40 mmHg)
>1000%	Cc1nc2c(OCC3CCCCC3)cccn2c1C(=O)N[C@@H]1c2ccccc2C[C@H]1C(=O)O [Ex 321]	4.5 µM	exhibited a blood flow increasing effect	–
–	Cc1nc2c(OCc3ccccc3F)cccn2c1C(=O)NC(CO)(CO)c1ccccc1 [Ex 828]	7.6 µM	–	–
–	Cc1nc2c(OCc3cccc(F)c3F)cccn2c1C(=O)N[C@@H]1c2ccccc2[C@H](O)[C@H]1O (stereo in doubt) [Ex 797]	8.9 µM	–	–
–	Cc1nc2c(OCC3CCCCC3)cccn2c1C(=O)NC(CO)CO [Ex 126]	11 µM	–	–
–	Cc1nc2c(OCc3c(F)cccc3F)cccn2c1C(=O)N[C@@H]1c2ccccc2[C@@H](O)[C@H]1O [Ex 759]	2.2 µM	exhibited a blood flow increasing effect	–

sGC activation [%] (human purified sGC)	Compound	EC50 (human purified sGC; [3])	blood flow increasing effect (Wistar male rats [1]; dose of 10 mg/kg)	also measured
–	Cc1nc2c(OCc3cccc(F)c3F)cccn2c1C(=O)NC(CO)(CO)c1ccccc1 [Ex 829]	2.7 µM	–	–
–	Cc1nc2c(OCc3c(F)cccc3F)cccn2c1C(=O)N[C@@H](CO)C(C)C [Ex 778]	6.3 µM	–	–
–	Cc1nc2c(OCc3c(F)cccc3F)cccn2c1C(=O)N[C@@H](CO)c1ccccc1.Cl [Ex 119]	2.9 µM	exhibited a blood flow increasing effect	–
>1000%	Cc1cccc2c1C[C@@H](C(=O)O)[C@@H]2NC(=O)c1c(C)nc2c(OCC3CCCCC3)cccn12 [Ex 693]	17 µM	exhibited a blood flow increasing effect	–
–	Cc1nc2c(OCC3CCCCC3)cccn2c1C(=O)N[C@H]1c2c(F)cccc2C[C@@H]1C(=O)O [Ex 705]	11 µM	–	–
>1000%	Cc1nc2c(OCCC(C)(C)C)cccn2c1C(=O)N[C@@H](CO)c1ccccc1.Cl [Ex 205]	–	–	–
–	Cc1nc2c(OCc3c(F)cccc3F)cccn2c1C(=O)NC(CO)(CO)c1ccccn1 [Ex 834]	4.1 µM	exhibited a blood flow increasing effect	–
–	OCc1ccc(-c2nn(Cc3ccccc3)c3ccccc23)o1 [YC-1, [5-(1-benzyl-1H-indazol-3-yl)-2-furyl]methanol, reference compound]	–	–	Emax (human purified sGC; maximum activation of Example 102 taken as 100%, read-out: maximum activation relative to the maximum activation for compound of Example 102): 52%
–	Cc1nc2c(OCc3c(F)cccc3F)cccn2c1C(=O)N[C@@H]1c2ccccc2C[C@H]1O.Cl [Ex 430]	2.6 µM	exhibited a blood flow increasing effect	–
–	Cc1nc2c(OCc3c(F)cccc3F)cccn2c1C(=O)N[C@]1(c2ccccc2)C[C@@H](O)[C@@H](O)C1 [Ex 767]	3 µM	exhibited a blood flow increasing effect	–
–	Cc1nc2c(OCc3c(F)cccc3F)cccn2c1C(=O)N[C@@H]1c2ccccc2C[C@H]1C(=O)O [Ex 434]	7.3 µM	–	Blood pressure reduction (maximum value of the mean blood pressure reduction) (Wistar male rats [2]; 30 mg/kg po): C (C: >40 mmHg)
–	Cc1nc2c(OCC3CCCCC3)cccn2c1C(=O)N[C@@H](CC(=O)O)CC(C)C [Example 12, (3R)-3-({[8-(cyclohexylmethoxy)-2-methylimidazo[1,2-a]pyridin-3-yl]carbonyl}amino)-5-methylhexanoic acid]	3 µM	exhibited a blood flow increasing effect	–
–	Cc1nc2c(OCc3c(F)cccc3F)cccn2c1C(=O)N[C@@]1(c2ccccc2)C[C@@H](O)[C@@H](O)C1 [Ex 766]	17 µM	–	–
–	Cc1nc2c(OCc3c(F)cccc3F)cccn2c1C(=O)N[C@H](C)CO [Ex 776]	15 µM	–	–
–	Cc1nc2c(OCc3c(F)cccc3F)cccn2c1C(=O)N[C@H](c1ccccc1)[C@H](O)CO [Ex 760]	5.9 µM	exhibited a blood flow increasing effect	–
–	Cc1nc2c(OCc3c(F)cccc3F)cccn2c1C(=O)N[C@H]1CCCNC1 [Ex 822]	5.6 µM	–	–
–	Cc1ccc(C(CO)(CO)NC(=O)c2c(C)nc3c(OCc4c(F)cccc4F)cccn23)cc1 [Ex 827]	–	–	Blood pressure reduction (maximum value of the mean blood pressure reduction) (Wistar male rats [2]; 10 mg/kg po): B (B: 20 to 40 mmHg)
>1000%	Cc1nc2c(OCc3c(F)ccc(F)c3F)cccn2c1C(=O)N[C@@H](CO)c1ccccc1.Cl [Ex 244]	–	–	blood flow increasing effect (Wistar male rats [1]; dose of 30 mg/kg): exhibited a blood flow increasing effect

Compound	sGC activation [%] (human purified sGC)	EC50 (human purified sGC; [3])	blood flow increasing effect (Wistar male rats [1]; dose of 10 mg/kg)	also measured
Cc1nc2c(OCc3c(F)cccc3F)cccn2c1C(=O)NC(CO)(CO)c1ccccc1.Cl [Ex 424]	>1000%	2.4 µM	exhibited a blood flow increasing effect	–
Cc1nc2c(OCc3c(F)cccc3F)cccn2c1C(=O)N[C@@H]1c2c(F)cccc2C[C@H]1C(=O)O [Ex 699]	>1000%	15 µM	exhibited a blood flow increasing effect	–
Cc1cccc2c1C[C@@H](C(=O)O)[C@@H]2NC(=O)c1c(C)nc2c(OCc3c(F)cccc3F)cccn12 [Ex 698]	>1000%	19 µM	exhibited a blood flow increasing effect	–
Cc1nc2c(OCc3c(F)ccc(F)c3F)cccn2c1C(=O)N[C@@H]1c2ccccc2C[C@H]1C(=O)O [Ex 702]	>1000%	6.2 µM	exhibited a blood flow increasing effect	–
